Reference: patent US10975119B2, “Selective cysteine protease inhibitors and uses thereof” (Genesis Technologies Limited, priority 2011, dated 2021)
“Also recorded” adds a separate entry of the source. Read-outs that look alike come from different tables or passages of the source.

Columns and labels:
Format in all cases: biochemical
Caspase-1 = biological target: T1, Caspase-1 (Homo sapiens, UniProt P29466); test: Caspase-1 inhibitor screening assay (BioVision kit, YVAD-AFC); conditions: for inhibition at 10 µM: read-out: % Inhibition at 10 uM Casp1; for inhibition at 100 µM: read-out: % Inhibition at 100 uM Casp1
T1 construct: mixing the compounds with the respective active caspases; purchased BioVision K151-100
T1 sequence (P29466 120-297 limits assumed): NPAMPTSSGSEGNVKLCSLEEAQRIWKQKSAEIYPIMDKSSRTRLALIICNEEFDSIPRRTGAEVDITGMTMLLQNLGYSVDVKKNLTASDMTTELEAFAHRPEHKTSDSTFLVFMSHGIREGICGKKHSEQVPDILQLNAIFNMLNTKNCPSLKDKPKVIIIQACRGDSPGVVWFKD
T1 sequence (P29466 317-404 limits assumed): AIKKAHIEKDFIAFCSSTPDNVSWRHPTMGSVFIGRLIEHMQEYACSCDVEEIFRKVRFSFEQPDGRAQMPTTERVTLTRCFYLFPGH
Summary of the method: (§1)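 Fluorometric read-out of free AFC released from the caspase-specific synthetic substrate. IC50 from concentration series, sometimes narrower.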

Caspase-9 = biological target: T2, Caspase-9 (Homo sapiens, UniProt P55211); test: Caspase-9 inhibitor screening assay (BioVision kit, LEHD-AFC); conditions: for inhibition at 10 µM: read-out: % Inhibition at 10 uM Casp9; for inhibition at 100 µM: read-out: % Inhibition at 100 uM Casp9
T2 construct: purchased BioVision K159-100
T2 sequence (P55211 1-315 limits assumed): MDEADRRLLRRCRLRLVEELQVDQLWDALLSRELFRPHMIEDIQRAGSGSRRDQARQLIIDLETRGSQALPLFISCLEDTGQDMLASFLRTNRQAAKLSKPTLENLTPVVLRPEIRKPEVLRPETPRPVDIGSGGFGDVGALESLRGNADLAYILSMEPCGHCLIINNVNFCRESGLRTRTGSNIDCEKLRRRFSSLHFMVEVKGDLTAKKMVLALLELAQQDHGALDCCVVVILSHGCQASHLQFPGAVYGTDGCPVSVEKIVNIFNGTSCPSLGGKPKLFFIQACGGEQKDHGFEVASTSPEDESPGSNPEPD
T2 sequence (P55211 331-416 limits assumed): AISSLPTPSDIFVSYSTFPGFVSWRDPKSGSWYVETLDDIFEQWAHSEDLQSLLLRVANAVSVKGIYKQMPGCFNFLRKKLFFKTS
Summary of the method: as §1

Caspase-6 = biological target: T3, Caspase-6 (Homo sapiens, UniProt P55212); test: Caspase-6 inhibitor screening assay (BioVision kit, VEID-AFC); conditions: for inhibition at 10 µM: read-out: % Inhibition at 10 uM Casp6; for inhibition at 100 µM: read-out: % Inhibition at 100 uM Casp6
T3 construct: mixing the compounds with the respective active caspases; purchased BioVision K156-100
T3 sequence (P55212 24-179 limits assumed): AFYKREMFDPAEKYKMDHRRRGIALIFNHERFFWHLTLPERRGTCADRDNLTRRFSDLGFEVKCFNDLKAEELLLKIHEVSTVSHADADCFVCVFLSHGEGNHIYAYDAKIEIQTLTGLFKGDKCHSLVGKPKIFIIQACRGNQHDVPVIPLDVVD
T3 sequence (P55212 194-293 limits assumed): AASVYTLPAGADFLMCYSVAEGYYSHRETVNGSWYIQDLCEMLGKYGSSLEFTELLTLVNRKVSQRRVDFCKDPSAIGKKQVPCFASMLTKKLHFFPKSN
Summary of the method: as §1

Caspases 1 through 10 = test: Caspase-1 to Caspase-10 inhibitor screening, profile across the panel
Procedure: The efficacy of an array of compounds as an inhibitor of the activity of Caspases 1 through 10 were assessed by using the respective Caspase Inhibitor Drug Screening Kits (Caspase-1 Catalog #: K151-100, Caspase-2 Catalog #: K152-100, Caspase-3 Catalog #: K153-100, Caspase-4 Catalog #: K154-100, Caspase-5 Catalog #: K155-100, Caspase-6 Catalog #: K156-100, Caspase-7 Catalog #: K157-100, Caspase-8 Catalog #: K158-100, Caspase-9 Catalog #: K159-100, Caspase-10 Catalog #: K160-100, BioVision) following the instructions of the manufacturer. […] Active caspases cleaved their respective synthetic substrates to release free AFC, which was then quantified by fluorometry.
Briefly, the compounds were first tested at 2 concentrations (10 uM and 100 uM final) to determine if there is a hit. […] Each condition was tested in duplicates. […] For some samples, a smaller range of concentrations was tested depending on the % Inhibition results at 10 uM and 100 uM. Results were summarized in Tables 2, 3, and 4 herein after. Table 2 represents the IC50 values (uM) of the test compounds as inhibitors of the activity of the various caspases.
(*) RFU (no inhibitor control)—RFU (compound at a specific concentration)
RFU (no inhibitor control)

Caspase-5 = biological target: T4, Caspase-5 (Homo sapiens, UniProt P51878); test: Caspase-5 inhibitor screening assay (BioVision kit, WEHD-AFC); conditions: for inhibition at 10 µM: read-out: % Inhibition at 10 uM Casp5; for inhibition at 100 µM: read-out: % Inhibition at 100 uM Casp5
T4 construct: mixing the compounds with the respective active caspases; purchased BioVision K155-100
T4 sequence (P51878 137-327 limits assumed): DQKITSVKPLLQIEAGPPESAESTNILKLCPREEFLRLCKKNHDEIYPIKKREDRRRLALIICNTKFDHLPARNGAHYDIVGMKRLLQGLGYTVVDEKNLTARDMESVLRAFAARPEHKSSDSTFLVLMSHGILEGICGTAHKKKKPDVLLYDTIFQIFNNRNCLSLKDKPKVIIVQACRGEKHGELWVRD
T4 sequence (P51878 347-434 limits assumed): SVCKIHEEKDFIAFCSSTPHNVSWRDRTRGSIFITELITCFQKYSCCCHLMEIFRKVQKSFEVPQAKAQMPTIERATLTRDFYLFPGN
Summary of the method: as §1

[1] = read-out: potency (IC50) against caspase-1
[2] = read-out: potency (IC50) against caspase-5

SMILES | inhibition at 10 µM (Caspase-1) | inhibition at 100 µM (Caspase-1) | IC50 (Caspase-1; read-out: IC50 Casp1) | IC50 (Caspase-1; [1]) | inhibition at 10 µM (Caspase-9) | inhibition at 100 µM (Caspase-9) | IC50 (Caspase-9; read-out: IC50 Casp9) | inhibition at 10 µM (Caspase-6) | inhibition at 100 µM (Caspase-6) | IC50 (Caspase-6; read-out: IC50 Casp6) | inhibition at 10 µM (Caspase-5) | inhibition at 100 µM (Caspase-5) | IC50 (Caspase-5; [2]) | IC50 (Caspase-5; read-out: IC50 Casp5) | IC50 (Caspase-9; read-out: potency (IC50) against caspase-9) | IC50 (Caspase-6; read-out: inhibition (IC50) against Caspase-6) | inhibition profile across caspases, in words (Caspases 1 through 10)
CC(C)(C)[C@H](NC(=O)c1ccc2ccccc2n1)C(=O)N1CCC[C@@H]1C(=O)N[C@H](/C=C/S(C)(=O)=O)CC(=O)O [Compound 6, 2-Quinoline carbonyl-t-Leu-pro-Asp methyl vinyl sulfone] | 98% | 100% | 40 nM | 42 nM | 1% | 51% | ~100000 nM | 0% | 3% | > 100000 nM | 86% | 99% | 2320 nM | – | – | – | inhibits selectively caspase-1; also recorded: very strong inhibitory activity towards pro-inflammatory Caspases
CC(C)(C)[C@H](NC(=O)c1ccc(N)c(Cl)c1)C(=O)N1CCCC1C(=O)N[C@H](/C=C/S(C)(=O)=O)CC(=O)O (stereo in doubt) [Compound 14, 4-amino-3-chlorobenzene carbonyl-t-Leu-Pro-Asp methyl vinyl sulfone] | 99% | 100% | 20 nM | 19 nM | 77% | 99% | 2300 nM | 3% | 30% | > 100000 nM | 96% | 100% | 563 nM | 560 nM | 2310 nM | – | very strong inhibitory activity towards pro-inflammatory Caspases

Now from value to molecule, other results behind:

inhibition at 10 µM (Caspase-1) | inhibition at 100 µM (Caspase-1) | IC50 (Caspase-1; read-out: IC50 Casp1) | IC50 (Caspase-1; [1]) | inhibition at 10 µM (Caspase-9) | inhibition at 100 µM (Caspase-9) | IC50 (Caspase-9; read-out: IC50 Casp9) | inhibition at 10 µM (Caspase-6) | inhibition at 100 µM (Caspase-6) | IC50 (Caspase-6; read-out: IC50 Casp6) | inhibition at 10 µM (Caspase-5) | inhibition at 100 µM (Caspase-5) | IC50 (Caspase-5; [2]) | IC50 (Caspase-5; read-out: IC50 Casp5) | IC50 (Caspase-9; read-out: potency (IC50) against caspase-9) | IC50 (Caspase-6; read-out: inhibition (IC50) against Caspase-6) | SMILES | inhibition profile across caspases, in words (Caspases 1 through 10)
100% | 100% | 30 nM | – | 53% | 92% | 8900 nM | 3% | 6% | > 100000 nM | 88% | 99% | – | 1950 nM | – | – | CCOC(=O)/C=C/[C@H](CC(=O)O)NC(=O)[C@H]1CCCN1C(=O)[C@@H](NC(=O)c1ccc2ccccc2n1)C(C)(C)C [Compound 118, 2-Quinoline carbonyl-t-Leu-Pro-Asp Ethyl Vinyl Ester] | very strong inhibitory activity towards pro-inflammatory Caspases
– | – | 10 nM | – | – | – | 830 nM | – | – | > 100000 nM | – | – | – | 130 nM | – | – | CCOC(=O)/C=C/[C@H](CC(=O)O)NC(=O)[C@H]1CCCN1C(=O)[C@@H](NC(=O)c1ccc(N)c(Cl)c1)C(C)(C)C [Compound 116, (4-amino-3-chlorobenzene carbonyl)-t-Leu-Pro-Asp Ethyl vinyl ester] | stronger inhibitory activity towards pro-inflammatory caspases Caspase-1 and -5
– | – | 780 nM | – | – | – | 7500 nM | – | – | 290 nM | – | – | – | 3770 nM | – | 293 nM | CCOC(=O)/C=C/[C@H](CC(=O)O)NC(=O)[C@@H](NC(=O)[C@H](CCC(=O)O)NC(=O)[C@@H](NC(=O)OCc1ccccc1)C(C)C)C(C)CC (stereo partly drawn) [Compound 124, Z-Val-Glu-Ile-Asp-Ethyl Vinyl ester] | pan-caspase inhibitor
